Measurements reported in publication PMC10140010 (Investigational New Drugs, 2023).
Values joined by “and” are separate entries in the source; they are usually repeats but may differ in a detail not shown here. Identical values can stand only once.

Key:
[1] = target: EPHA2 (Homo sapiens, UniProt P29317); assay: Z'-LYTE kinase selectivity; format: biochemical
[2] = target: INSR (Homo sapiens, UniProt P06213); assay: Z'-LYTE kinase selectivity; format: biochemical
[3] = target: KDR (Homo sapiens, UniProt P35968); assay: Z'-LYTE kinase selectivity; format: biochemical; details: read-out: IC50 KDR
[4] = target: MAP4K4 (Homo sapiens, UniProt O95819); assay: Z'-LYTE kinase selectivity; format: biochemical
[5] = target: MAPKAPK2 (Homo sapiens, UniProt P49137); assay: Z'-LYTE kinase selectivity; format: biochemical
[6] = target: P38 alpha (Homo sapiens, UniProt Q16539); assay: Z'-LYTE kinase selectivity; format: biochemical
[7] = target: PDK1 (Homo sapiens, UniProt O15530); assay: Z'-LYTE kinase selectivity; format: biochemical; details: read-out: IC50 PDK1
[8] = target: PKA (Homo sapiens, UniProt P17612); assay: Z'-LYTE kinase selectivity; format: biochemical
[9] = target: TAOK2 (Homo sapiens, UniProt Q9UL54); assay: Z'-LYTE kinase selectivity; format: biochemical
[10] = target: TNIK (Homo sapiens, UniProt Q9UKE5); assay: Z'-LYTE kinase selectivity; format: biochemical
[11] = test system: Ba/F3 (EML4-ALK^C1156Y) cells; assay: Cell proliferation (CellTiter-Glo); format: cell-based; details: Mus musculus, BaF3
Experimental: (§1) Cell proliferation assay was performed using methods reported in the previous article. Cell proliferation was measured using the CellTiter-Glo® (CTG) Luminescent Cell Viability Assay (Promega, WI, USA). Cells were seeded in 96-well plates at 15,000 cells per well in detection medium containing 0.5% fetal bovine serum and placed in an incubator at 37℃ and 5% CO2 overnight. On the following day, iruplinalkib was serially diluted with DMSO, further diluted in assay medium, and added to the designated wells for serial dilution of iruplinalkib to the target gradient concentration.
(§2) Transfection was performed when cell confluent reached 70–90% in 12-well plates. Opti-MEM medium was used to dilute Lipofectamine 3000 reagent (ThermoFisher, MA, USA) and siRNA separately and mixed well. The mixture was added to the cells after incubation at room temperature for 15 min, then at 37℃ for 2–4 days.

[12] = test system: Ba/F3 (EML4-ALK^WT) cells; assay: Cell proliferation (CellTiter-Glo); format: cell-based; details: Mus musculus, BaF3
Experimental: as §1, §2

[13] = test system: LU-01-0015 (HIP-ALK) patient derived lung-tumor xenografts; assay: LU-01-0015 patient-derived xenograft model (tumor volume, body weight); format: in vivo, BALB/c nude mice; details: for Tumor volume Mean: group mean; for Tumor volume: individual mouse, in mm³
Experimental: Female BALB/c nude mice (4–6 weeks old) were provided by Shanghai Sipple-Bikai Laboratory Animal Co., Ltd. and Beijing Vital River Laboratory Animal Technology Co., Ltd. The mice were housed in a specific pathogen-free environment under a 12 h light/dark cycle, and had free access to sterile animal feed and water.
PDX and CDX models were used for in vivo studies. Patient-derived tumors tissues were divided into about 30 mm^3 and transplanted into the right dorsal subcutis. Treatment began when the tumor size reached to 200 mm^3. The mice were randomly assignied into the corresponding dosing groups (9 mice in each group). Drugs were deliverd via daily oral for 4 weeks. Tumor size was measured periodically using a digital caliper (Cal Pro, Sylvac, Switzerland), and tumor volume was calculated as 0.5 × length × width^2. For more detailed information, please refer to Supplementary materials. All procedures and protocols of xenograft models were approved by the Institutional Animal Care and Use Committee of WuXi AppTec.
Patient-derived tumor tissue was segmented into small pieces of approximately 20–30 mm^3 and transplanted subcutaneously into the right back of mice. When the tumor volume reached 150-200 mm^3, the mice were randomly divided into corresponding groups (9 mice in each group, female). Administered by gavage once daily for 4 weeks.

[14] = target: FGFR1 (Homo sapiens, UniProt P11362); assay: Z'-LYTE kinase selectivity
[15] = 5 mg/kg PO QD×4 W, day 0 after administration
[16] = 5 mg/kg PO QD×4 W, day 3 after administration
[17] = 5 mg/kg PO QD×4 W, day 7 after administration
[18] = 5 mg/kg PO QD×4 W, day 10 after administration
[19] = 5 mg/kg PO QD×4 W, day 14 after administration
[20] = 5 mg/kg PO QD×4 W, day 17 after administration
[21] = 5 mg/kg PO QD×4 W, day 21 after administration
[22] = 5 mg/kg PO QD×4 W, day 24 after administration
[23] = 5 mg/kg PO QD×4 W, day 27 after administration
[24] = 10 mg/kg (D0-D7)/2.5 mg/kg PO QD×4 W, day 0 after administration
[25] = 10 mg/kg (D0-D7)/2.5 mg/kg PO QD×4 W, day 3 after administration
[26] = 10 mg/kg (D0-D7)/2.5 mg/kg PO QD×4 W, day 7 after administration
[27] = 10 mg/kg (D0-D7)/2.5 mg/kg PO QD×4 W, day 10 after administration
[28] = 10 mg/kg (D0-D7)/2.5 mg/kg PO QD×4 W, day 14 after administration
[29] = 10 mg/kg (D0-D7)/2.5 mg/kg PO QD×4 W, day 17 after administration
[30] = 10 mg/kg (D0-D7)/2.5 mg/kg PO QD×4 W, day 21 after administration
[31] = 10 mg/kg (D0-D7)/2.5 mg/kg PO QD×4 W, day 24 after administration
[32] = 10 mg/kg (D0-D7)/2.5 mg/kg PO QD×4 W, day 27 after administration
[33] = 15 mg/kg PO QD×4 W, day 0 after administration
[34] = 15 mg/kg PO QD×4 W, day 3 after administration
[35] = 15 mg/kg PO QD×4 W, day 7 after administration
[36] = 15 mg/kg PO QD×4 W, day 10 after administration
[37] = 15 mg/kg PO QD×4 W, day 14 after administration
[38] = 15 mg/kg PO QD×4 W, day 17 after administration
[39] = 15 mg/kg PO QD×4 W, day 21 after administration
[40] = 15 mg/kg PO QD×4 W, day 24 after administration
[41] = 15 mg/kg PO QD×4 W, day 27 after administration

Sequence of MAPKAPK2 (P49137 whole entry): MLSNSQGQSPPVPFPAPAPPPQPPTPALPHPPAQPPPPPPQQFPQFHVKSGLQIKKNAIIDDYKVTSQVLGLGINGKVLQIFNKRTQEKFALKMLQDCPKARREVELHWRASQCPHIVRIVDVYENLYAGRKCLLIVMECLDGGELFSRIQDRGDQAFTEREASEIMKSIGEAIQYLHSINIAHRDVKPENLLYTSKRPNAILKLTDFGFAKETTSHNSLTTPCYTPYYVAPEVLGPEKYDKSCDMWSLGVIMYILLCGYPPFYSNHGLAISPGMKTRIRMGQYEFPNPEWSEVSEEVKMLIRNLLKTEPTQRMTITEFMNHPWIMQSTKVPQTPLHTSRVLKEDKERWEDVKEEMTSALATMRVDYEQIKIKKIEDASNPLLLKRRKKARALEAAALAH
Sequence of MAP4K4 (O95819 whole entry): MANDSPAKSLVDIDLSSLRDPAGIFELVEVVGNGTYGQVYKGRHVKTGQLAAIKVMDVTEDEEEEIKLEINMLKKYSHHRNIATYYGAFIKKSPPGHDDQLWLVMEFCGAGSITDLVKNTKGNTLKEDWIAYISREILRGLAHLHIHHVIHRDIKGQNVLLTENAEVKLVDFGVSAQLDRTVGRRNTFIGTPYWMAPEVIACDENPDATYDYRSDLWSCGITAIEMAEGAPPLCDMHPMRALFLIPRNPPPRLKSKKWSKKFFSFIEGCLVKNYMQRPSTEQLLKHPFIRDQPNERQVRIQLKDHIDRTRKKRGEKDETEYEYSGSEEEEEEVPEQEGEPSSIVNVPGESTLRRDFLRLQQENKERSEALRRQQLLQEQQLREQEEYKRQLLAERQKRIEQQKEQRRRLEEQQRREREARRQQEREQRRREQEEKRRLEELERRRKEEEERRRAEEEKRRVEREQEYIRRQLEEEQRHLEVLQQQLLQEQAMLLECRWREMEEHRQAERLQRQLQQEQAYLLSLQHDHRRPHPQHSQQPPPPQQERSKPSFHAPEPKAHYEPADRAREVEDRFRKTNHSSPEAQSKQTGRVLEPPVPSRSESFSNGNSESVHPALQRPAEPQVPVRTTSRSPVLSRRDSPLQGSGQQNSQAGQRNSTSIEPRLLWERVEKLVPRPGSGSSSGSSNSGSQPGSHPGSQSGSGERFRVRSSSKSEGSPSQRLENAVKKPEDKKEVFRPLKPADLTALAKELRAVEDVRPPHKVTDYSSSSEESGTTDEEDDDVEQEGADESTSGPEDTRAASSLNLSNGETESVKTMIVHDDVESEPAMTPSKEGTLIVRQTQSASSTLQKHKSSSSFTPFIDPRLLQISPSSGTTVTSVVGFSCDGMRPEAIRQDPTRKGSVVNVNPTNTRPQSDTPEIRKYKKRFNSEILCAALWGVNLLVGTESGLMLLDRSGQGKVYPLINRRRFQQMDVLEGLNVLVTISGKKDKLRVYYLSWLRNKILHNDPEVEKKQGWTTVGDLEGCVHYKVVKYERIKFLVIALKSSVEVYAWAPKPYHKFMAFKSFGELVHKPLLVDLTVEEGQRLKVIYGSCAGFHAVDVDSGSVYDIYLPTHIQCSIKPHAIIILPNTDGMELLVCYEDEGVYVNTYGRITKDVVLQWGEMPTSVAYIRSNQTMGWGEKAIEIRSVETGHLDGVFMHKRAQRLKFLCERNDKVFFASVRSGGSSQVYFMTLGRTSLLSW
Sequence of PDK1 (O15530 whole entry): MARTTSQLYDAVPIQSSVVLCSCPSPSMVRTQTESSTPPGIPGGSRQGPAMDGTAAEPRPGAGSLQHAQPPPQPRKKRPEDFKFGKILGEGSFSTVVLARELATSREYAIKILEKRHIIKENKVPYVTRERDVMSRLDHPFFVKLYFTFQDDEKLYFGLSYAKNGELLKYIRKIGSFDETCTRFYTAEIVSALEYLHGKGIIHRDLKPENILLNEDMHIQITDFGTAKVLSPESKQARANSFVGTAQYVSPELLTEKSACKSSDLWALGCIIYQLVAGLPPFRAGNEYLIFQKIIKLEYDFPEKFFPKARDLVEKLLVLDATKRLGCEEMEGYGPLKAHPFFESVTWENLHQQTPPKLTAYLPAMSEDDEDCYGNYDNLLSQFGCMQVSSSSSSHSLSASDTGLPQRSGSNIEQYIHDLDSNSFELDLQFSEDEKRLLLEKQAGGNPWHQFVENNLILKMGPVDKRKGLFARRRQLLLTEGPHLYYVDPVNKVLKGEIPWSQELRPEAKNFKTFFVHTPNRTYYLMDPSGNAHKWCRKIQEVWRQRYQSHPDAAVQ
Sequence of KDR (P35968 20-1356): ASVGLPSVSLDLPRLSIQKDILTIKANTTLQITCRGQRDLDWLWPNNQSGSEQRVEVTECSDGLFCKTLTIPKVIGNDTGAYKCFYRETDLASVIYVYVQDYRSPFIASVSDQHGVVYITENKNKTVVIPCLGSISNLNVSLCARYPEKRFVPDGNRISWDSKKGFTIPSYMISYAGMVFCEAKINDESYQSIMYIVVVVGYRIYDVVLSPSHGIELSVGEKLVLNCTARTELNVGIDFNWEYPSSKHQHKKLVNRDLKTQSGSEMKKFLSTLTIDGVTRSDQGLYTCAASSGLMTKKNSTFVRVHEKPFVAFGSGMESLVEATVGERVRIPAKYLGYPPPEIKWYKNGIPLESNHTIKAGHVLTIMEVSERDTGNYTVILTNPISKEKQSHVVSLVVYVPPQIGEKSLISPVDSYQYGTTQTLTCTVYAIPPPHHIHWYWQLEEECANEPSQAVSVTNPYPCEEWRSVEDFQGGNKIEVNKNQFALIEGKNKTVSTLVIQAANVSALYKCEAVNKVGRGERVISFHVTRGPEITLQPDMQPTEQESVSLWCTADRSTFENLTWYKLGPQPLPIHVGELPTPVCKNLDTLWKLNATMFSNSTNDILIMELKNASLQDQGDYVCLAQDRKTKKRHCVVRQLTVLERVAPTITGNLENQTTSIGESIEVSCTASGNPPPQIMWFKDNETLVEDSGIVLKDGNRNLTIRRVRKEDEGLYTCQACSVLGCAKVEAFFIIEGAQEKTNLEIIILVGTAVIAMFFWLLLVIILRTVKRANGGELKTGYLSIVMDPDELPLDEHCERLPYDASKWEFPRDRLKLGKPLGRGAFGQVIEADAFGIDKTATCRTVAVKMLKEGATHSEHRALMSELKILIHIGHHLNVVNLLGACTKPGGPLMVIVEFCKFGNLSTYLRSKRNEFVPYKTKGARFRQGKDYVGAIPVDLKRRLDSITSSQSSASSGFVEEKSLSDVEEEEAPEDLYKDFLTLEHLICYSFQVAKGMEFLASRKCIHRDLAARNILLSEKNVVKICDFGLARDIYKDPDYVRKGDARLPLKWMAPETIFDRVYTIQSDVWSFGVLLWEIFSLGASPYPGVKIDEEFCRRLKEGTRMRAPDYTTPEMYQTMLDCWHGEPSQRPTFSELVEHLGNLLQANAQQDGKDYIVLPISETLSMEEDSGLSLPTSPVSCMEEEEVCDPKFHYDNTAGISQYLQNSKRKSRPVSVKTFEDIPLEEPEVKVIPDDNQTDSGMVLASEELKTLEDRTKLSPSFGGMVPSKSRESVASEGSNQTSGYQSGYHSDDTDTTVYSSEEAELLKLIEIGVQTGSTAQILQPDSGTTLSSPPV
Sequence of INSR (P06213 28-1382): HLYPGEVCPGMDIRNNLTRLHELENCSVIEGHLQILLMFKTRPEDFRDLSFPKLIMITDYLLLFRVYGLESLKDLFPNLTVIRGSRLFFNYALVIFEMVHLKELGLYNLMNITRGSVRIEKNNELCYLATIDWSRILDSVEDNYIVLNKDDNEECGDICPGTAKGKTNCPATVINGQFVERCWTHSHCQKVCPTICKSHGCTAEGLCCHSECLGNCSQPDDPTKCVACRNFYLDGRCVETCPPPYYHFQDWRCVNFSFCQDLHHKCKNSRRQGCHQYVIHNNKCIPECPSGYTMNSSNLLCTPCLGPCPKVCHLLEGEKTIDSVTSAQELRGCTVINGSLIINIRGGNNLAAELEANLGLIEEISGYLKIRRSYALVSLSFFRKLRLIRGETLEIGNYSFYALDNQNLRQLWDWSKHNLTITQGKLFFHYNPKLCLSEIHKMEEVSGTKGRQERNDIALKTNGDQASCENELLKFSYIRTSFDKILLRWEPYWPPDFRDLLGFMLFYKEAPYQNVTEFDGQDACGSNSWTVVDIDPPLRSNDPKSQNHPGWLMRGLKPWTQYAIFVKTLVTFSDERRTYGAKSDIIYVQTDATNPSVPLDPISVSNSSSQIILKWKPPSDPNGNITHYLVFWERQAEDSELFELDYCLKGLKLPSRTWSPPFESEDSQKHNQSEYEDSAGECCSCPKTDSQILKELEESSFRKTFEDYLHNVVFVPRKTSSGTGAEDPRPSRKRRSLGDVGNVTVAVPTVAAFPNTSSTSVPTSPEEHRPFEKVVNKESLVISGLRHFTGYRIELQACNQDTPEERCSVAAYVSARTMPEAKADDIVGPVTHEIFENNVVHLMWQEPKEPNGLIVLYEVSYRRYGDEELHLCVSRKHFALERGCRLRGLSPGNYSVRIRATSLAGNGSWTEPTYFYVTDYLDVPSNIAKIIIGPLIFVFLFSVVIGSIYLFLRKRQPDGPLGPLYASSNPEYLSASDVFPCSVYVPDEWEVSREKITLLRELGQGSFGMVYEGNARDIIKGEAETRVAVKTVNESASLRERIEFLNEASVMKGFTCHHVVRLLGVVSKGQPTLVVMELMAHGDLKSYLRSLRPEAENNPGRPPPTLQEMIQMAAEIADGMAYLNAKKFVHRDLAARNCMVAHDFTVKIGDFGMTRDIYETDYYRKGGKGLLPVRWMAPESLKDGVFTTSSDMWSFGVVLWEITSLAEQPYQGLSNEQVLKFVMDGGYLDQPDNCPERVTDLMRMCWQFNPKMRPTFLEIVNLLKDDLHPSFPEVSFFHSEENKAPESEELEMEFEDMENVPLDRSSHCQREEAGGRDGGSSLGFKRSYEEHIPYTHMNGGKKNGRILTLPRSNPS

COc1cc(N2CCC3(CCN(C)CC3)CC2)ccc1Nc1ncc(Cl)c(Nc2ccccc2P(C)(C)=O)n1 [Iruplinalkib] was tested. Which IC50 [1] did it give?
Its IC50 is over 10000 nM.

What about the IC50 [2] of the same compound?
Its IC50 is 699 ± 261 nM.

And the IC50 [3]?
Its IC50 is 260 ± 128 nM.

What about the IC50 [4] of the same compound?
Its IC50 is 1840 ± 679 nM.

What about the IC50 [5] of the same compound?
Its IC50 is over 10000 nM.

And the IC50 [6]?
Its IC50 is over 10000 nM.

What about the IC50 [7] of the same compound?
The IC50 was over 10000 nM.

What about the IC50 [8] of the same compound?
The IC50 was over 10000 nM.

And the IC50 [9]?
The IC50 was 1500 ± 442 nM.

And the IC50 [10]?
The IC50 was 3210 ± 1540 nM.

What about the IC50 [11] of the same compound?
Its IC50 is 9 nM.

What about the IC50 [12] of the same compound?
The IC50 was 4 nM.

And the Tumor volume Mean [13, 15]?
Its Tumor volume Mean is 149 mm³.

And the Tumor volume [13, 15]?
The Tumor volume was 165.

What about the Tumor volume Mean [13, 16] of the same compound?
Its Tumor volume Mean is 127 mm³.

And the Tumor volume [13, 16]?
Its Tumor volume is 165.

And the Tumor volume Mean [13, 17]?
The Tumor volume Mean was 82 mm³.

What about the Tumor volume [13, 17] of the same compound?
Its Tumor volume is 96.

And the Tumor volume Mean [13, 18]?
The Tumor volume Mean was 79 mm³.

What about the Tumor volume [13, 18] of the same compound?
Its Tumor volume is 80.

And the Tumor volume Mean [13, 19]?
The Tumor volume Mean was 70 mm³.

And the Tumor volume [13, 19]?
The Tumor volume was 75.

And the Tumor volume Mean [13, 20]?
Its Tumor volume Mean is 81 mm³.

And the Tumor volume [13, 20]?
The Tumor volume was 96.

And the Tumor volume Mean [13, 21]?
The Tumor volume Mean was 89 mm³.

And the Tumor volume [13, 21]?
Its Tumor volume is 121.

And the Tumor volume Mean [13, 22]?
The Tumor volume Mean was 85 mm³.

And the Tumor volume [13, 22]?
Its Tumor volume is 118.

And the Tumor volume Mean [13, 23]?
Its Tumor volume Mean is 94 mm³.

And the Tumor volume [13, 23]?
The Tumor volume was 104.

What about the Tumor volume Mean [13, 24] of the same compound?
The Tumor volume Mean was 150 mm³.

What about the Tumor volume [13, 24] of the same compound?
The Tumor volume was 136 and 117.

And the Tumor volume Mean [13, 25]?
Its Tumor volume Mean is 124 mm³.

And the Tumor volume [13, 25]?
Its Tumor volume is 115 and 76.

And the Tumor volume Mean [13, 26]?
The Tumor volume Mean was 77 mm³.

And the Tumor volume [13, 26]?
Its Tumor volume is 71 and 51.

What about the Tumor volume Mean [13, 27] of the same compound?
The Tumor volume Mean was 60 mm³.

And the Tumor volume [13, 27]?
The Tumor volume was 49 and 43.

What about the Tumor volume Mean [13, 28] of the same compound?
Its Tumor volume Mean is 63 mm³.

And the Tumor volume [13, 28]?
The Tumor volume was 48.

What about the Tumor volume Mean [13, 29] of the same compound?
Its Tumor volume Mean is 77 mm³.

What about the Tumor volume [13, 29] of the same compound?
The Tumor volume was 58.

And the Tumor volume Mean [13, 30]?
Its Tumor volume Mean is 107 mm³.

What about the Tumor volume [13, 30] of the same compound?
Its Tumor volume is 56.

And the Tumor volume Mean [13, 31]?
The Tumor volume Mean was 106 mm³.

What about the Tumor volume [13, 31] of the same compound?
The Tumor volume was 57.

And the Tumor volume Mean [13, 32]?
Its Tumor volume Mean is 127 mm³.

What about the Tumor volume [13, 32] of the same compound?
The Tumor volume was 65 and 99.

And the Tumor volume Mean [13, 33]?
Its Tumor volume Mean is 149 mm³.

What about the Tumor volume [13, 33] of the same compound?
The Tumor volume was 101 and 162 and 129 and 99 and 217 and 147 and 109 and 207 and 174.

What about the Tumor volume Mean [13, 34] of the same compound?
Its Tumor volume Mean is 115 mm³.

What about the Tumor volume [13, 34] of the same compound?
Its Tumor volume is 81 and 117 and 84 and 63 and 150 and 118 and 79 and 154 and 190.

What about the Tumor volume Mean [13, 35] of the same compound?
The Tumor volume Mean was 66 mm³.

And the Tumor volume [13, 35]?
Its Tumor volume is 51 and 61 and 57 and 56 and 78 and 72 and 52 and 71 and 98.

What about the Tumor volume Mean [13, 36] of the same compound?
Its Tumor volume Mean is 54 mm³.

And the Tumor volume [13, 36]?
Its Tumor volume is 48 and 61 and 44 and 35 and 63 and 79 and 45.

What about the Tumor volume Mean [13, 37] of the same compound?
Its Tumor volume Mean is 49 mm³.

What about the Tumor volume [13, 37] of the same compound?
Its Tumor volume is 41 and 57 and 43 and 31 and 72 and 46 and 44 and 60.

What about the Tumor volume Mean [13, 38] of the same compound?
Its Tumor volume Mean is 51 mm³.

What about the Tumor volume [13, 38] of the same compound?
Its Tumor volume is 44 and 92 and 41 and 24 and 68 and 47 and 32 and 42.

What about the Tumor volume Mean [13, 39] of the same compound?
The Tumor volume Mean was 49 mm³.

And the Tumor volume [13, 39]?
Its Tumor volume is 35 and 87 and 45 and 30 and 53 and 59 and 37 and 41 and 57.

What about the Tumor volume Mean [13, 40] of the same compound?
The Tumor volume Mean was 43 mm³.

And the Tumor volume [13, 40]?
Its Tumor volume is 29 and 56 and 37 and 23 and 45 and 53 and 34 and 22 and 91.

And the Tumor volume Mean [13, 41]?
The Tumor volume Mean was 49 mm³.

What about the Tumor volume [13, 41] of the same compound?
Its Tumor volume is 30 and 67 and 38 and 27 and 62 and 54 and 44 and 42 and 78.

What about the “tumor growth inhibition” value ([13]; LU-01-0015 and NCI-H3122 xenograft models, all P < 0.05) of the same compound?
The value was “able to inhibit tumor growth”.

What about the “tumor inhibition effect compared with brigatinib” value ([13]; crizotinib-resistant model) of the same compound?
The value was “significantly better than that of brigatinib”.

And the “effect on body weight” value ([13]; nude mouse xenograft models (LU-01-0015, NCI-H3122), all P ≥ 0.05)?
The value was “no effect”.

What about the IC50 [14] of the same compound?
Its IC50 is 249 ± 71 nM.
